Source: PMC9863562, “Design, Synthesis, and Biological Evaluation of 2-Mercaptobenzoxazole Derivatives as Potential Multi-Kinase Inhibitors” (Pharmaceuticals, 2023)

How the values were obtained:
Human HER2 = target: T1, Human HER2 (Homo sapiens, UniProt P04626); assay: In vitro HER2 enzyme assay (ELISA kit); type: biochemical
T1 construct: purchased
Description: (§1) Human CDK2, EGFR, HER2, and VEGFR-2 ELISA kits (Enzyme-Linked-Immunosorbent Serologic Assay) were used during this evaluation. At first, specified antibody proteins were added separately to a 96-well plate, then 0.1 mL of the standard solution or the evaluated molecule was added; these were then incubated for 2.5 h at RT. After rinsing, 100 μL of the ready-made biotin antibody protein was added, then incubated for one extra hour at room temperature and, finally, washed. Next, 100 μL of streptavidin solution was added, incubated at room temperature for 45 min, and then washed. Next, 100 μL of the TMB substrate reagent was added and incubated for 0.5 h at RT, followed by adding 50 μL of the stop solution. The absorbance of the ELISA plate was promptly measured at 450 nm using the ELISA plate reader.

Human VEGFR-2 = target: T2, Human VEGFR-2 (Homo sapiens, UniProt P35968); assay: In vitro VEGFR-2 enzyme assay (ELISA kit); type: biochemical; conditions: read-out: IC50 VEGFR2
T2 construct: purchased
Description: as §1, with “Compound 6b was biologically evaluated for its inhibitory effect against CDK2, EGFR, HER2, and VEGFR-2. Human” for “Human”, “reader. The standard curve that was generated had absorbances on the Y-axis and concentrations on the X-axis.” for “reader.”

HepG2 cells = assay: Annexin V-FITC/PI dual-staining apoptosis analysis; type: cell-based, human; conditions: HepG2, 6b at 6.83 μM, 24 h
Description: To identify the mode of cell death promoted by compound 6b within the liver cancer cells (HepG2), apoptosis rate analysis was performed, following 24 h of exposure. […] Moreover, the average proportion of Annexin-V-stained positive cells (total apoptotic cells) was elevated from 2.02% within the untreated cells to 16.84% within the treated ones. […] The provided findings are supported by the previous cell cycle analysis, confirming the potentiality of 6b as a promising anticancer agent (see Table 6 and Figure 6).
Apoptosis analysis was employed to evaluate the apoptotic effect of compound 6b. […] These stained cells were evaluated using flow cytometry equipment Epics XL-MCL™ (Beckman Coulter, Apeldoorn, Netherlands) with an excitation wavelength of 488 nm and an emission wavelength of 530 nm. The results were then analyzed with the Flowing software.

[1] = tested on: MDA-MB-231 cells (breast cancer); assay: MTT cytotoxicity assay, MDA-MB-231; type: cell-based; conditions: Homo sapiens, 24 h treatment, read-out: In Vitro Cytotoxicity IC50 MDA-MB-231
Description: After incubation, the cells were treated with various concentrations of the synthesized compounds and incubated for an additional 24 h. Following the drug treatment, 20 µL of 5 mg/mL MTT solution was added and incubated for 4 h. To dissolve the purple formazan that had formed, 100 µL dimethyl sulfoxide (DMSO) was added to each well. […] The percentage of relative cell viability was counted using the following formula (A570 of handled specimens/A570 of the unhandled specimen), multiplied by 100.

Human CDK2 = target: T3, Human CDK2 (Homo sapiens, UniProt P24941); assay: In vitro CDK2 enzyme assay (ELISA kit); type: biochemical
T3 construct: purchased
Description: as §1

Bax = assay: Apoptosis-related proteins in HepG2 cells (ELISA), Bax; type: cell-based, human
Excerpt: (§2) Compound 6b was selected to investigate the apoptotic markers against the liver cancer cell line (HepG2). […] Typically, Bax, Bcl-2, and caspases contribute to the regulation of apoptotic signaling. Acting as an apoptotic activator (Bax) or inhibitor (Bcl-2), the Bcl-2 family of proteins plays a significant role in apoptosis. The caspase family comprises cysteine proteases that are classified as either executioner—caspase-3, or as initiators—caspase-9 and caspase-8 [40]. […] Nevertheless, considerable downregulation of the anti-apoptotic gene, Bcl-2 (0.26 folds), was described, leading to an increased expression ratio of Bax/Bcl-2 (1→20.53). The Bax/Bcl-2 gene expression ratio can serve as an early predictor for cancer in patients and is a sensitive monitor of cancer progression. Collating all the provided evidence, the upregulation of caspase-3, caspase-9, and Bax is clear, while the downregulation of Bcl-2 genes makes it evident that compound 6b induces apoptosis within the liver cancer cell line (HepG2).
(§3) The HepG2 cells were incubated in 96-well plates in triplicates and left for 24 h. After 24 h of incubation, the cells were treated with compound 6b at different concentrations, while control cells were only treated with 0.1% DMSO (v/v). The treated cells, along with control cells, were then incubated for another 24 h; then, caspases-3 and 9, BAX, and Bcl-2 levels were determined using ELISA assay kits; KHO1091 (Invitrogen^TM, Grand Island, NY, USA), EIA-4860 (DRU International, Inc., Mountainside, NJ, USA), EIA-4487 (DRU International INC., Mountainside, NJ, USA) and 99–0042 (Invitrogen^TM, Grand Island, NY, USA), respectively, according to their manufacturers’ procedures.

Caspase-9 = assay: Apoptosis-related proteins in HepG2 cells (ELISA), Caspase-9; type: cell-based, human
Excerpt: as §2, with “Collating all the provided evidence, the upregulation of caspase-3, caspase-9, and Bax is clear, while the downregulation of Bcl-2 genes makes it evident that compound 6b induces apoptosis within the liver cancer cell line (HepG2).” left out
as §3, with “After 24 h of incubation, the cells were treated with compound 6b at different concentrations, while control cells were only treated with 0.1% DMSO (v/v).” left out

T2 sequence (P35968 20-1356): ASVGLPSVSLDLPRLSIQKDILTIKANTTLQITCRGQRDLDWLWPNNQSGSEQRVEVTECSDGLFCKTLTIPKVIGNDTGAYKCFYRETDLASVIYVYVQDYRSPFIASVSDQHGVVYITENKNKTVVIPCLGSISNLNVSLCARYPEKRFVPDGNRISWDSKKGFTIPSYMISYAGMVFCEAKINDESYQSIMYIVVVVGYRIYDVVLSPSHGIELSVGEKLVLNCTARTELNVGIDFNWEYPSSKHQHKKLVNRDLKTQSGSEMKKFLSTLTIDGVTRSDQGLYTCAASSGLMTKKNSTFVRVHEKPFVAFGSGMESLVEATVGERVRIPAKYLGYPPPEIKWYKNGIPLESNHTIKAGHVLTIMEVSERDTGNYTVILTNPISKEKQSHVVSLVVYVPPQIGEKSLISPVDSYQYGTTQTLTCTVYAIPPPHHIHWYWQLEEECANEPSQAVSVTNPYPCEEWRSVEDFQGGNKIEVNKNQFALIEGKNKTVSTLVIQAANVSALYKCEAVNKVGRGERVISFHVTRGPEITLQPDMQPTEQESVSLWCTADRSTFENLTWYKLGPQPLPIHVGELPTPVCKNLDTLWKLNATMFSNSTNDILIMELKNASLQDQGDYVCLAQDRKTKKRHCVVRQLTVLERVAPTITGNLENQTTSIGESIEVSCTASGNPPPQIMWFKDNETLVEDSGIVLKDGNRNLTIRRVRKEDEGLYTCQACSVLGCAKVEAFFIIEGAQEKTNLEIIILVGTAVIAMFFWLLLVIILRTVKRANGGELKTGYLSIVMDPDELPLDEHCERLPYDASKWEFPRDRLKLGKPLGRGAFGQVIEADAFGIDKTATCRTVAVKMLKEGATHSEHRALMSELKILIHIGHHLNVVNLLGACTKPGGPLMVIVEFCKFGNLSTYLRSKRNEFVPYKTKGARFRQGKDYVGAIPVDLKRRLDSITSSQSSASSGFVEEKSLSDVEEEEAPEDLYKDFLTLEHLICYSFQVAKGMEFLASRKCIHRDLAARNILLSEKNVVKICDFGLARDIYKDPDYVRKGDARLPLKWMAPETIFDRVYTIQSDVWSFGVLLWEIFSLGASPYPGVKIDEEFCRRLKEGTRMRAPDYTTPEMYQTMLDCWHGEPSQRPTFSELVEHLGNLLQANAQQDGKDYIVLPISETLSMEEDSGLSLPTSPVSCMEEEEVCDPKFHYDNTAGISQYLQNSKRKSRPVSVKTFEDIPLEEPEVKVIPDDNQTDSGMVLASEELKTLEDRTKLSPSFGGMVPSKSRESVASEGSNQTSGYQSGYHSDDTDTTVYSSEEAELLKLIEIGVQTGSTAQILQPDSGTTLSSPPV
T1 sequence (P04626 23-1255): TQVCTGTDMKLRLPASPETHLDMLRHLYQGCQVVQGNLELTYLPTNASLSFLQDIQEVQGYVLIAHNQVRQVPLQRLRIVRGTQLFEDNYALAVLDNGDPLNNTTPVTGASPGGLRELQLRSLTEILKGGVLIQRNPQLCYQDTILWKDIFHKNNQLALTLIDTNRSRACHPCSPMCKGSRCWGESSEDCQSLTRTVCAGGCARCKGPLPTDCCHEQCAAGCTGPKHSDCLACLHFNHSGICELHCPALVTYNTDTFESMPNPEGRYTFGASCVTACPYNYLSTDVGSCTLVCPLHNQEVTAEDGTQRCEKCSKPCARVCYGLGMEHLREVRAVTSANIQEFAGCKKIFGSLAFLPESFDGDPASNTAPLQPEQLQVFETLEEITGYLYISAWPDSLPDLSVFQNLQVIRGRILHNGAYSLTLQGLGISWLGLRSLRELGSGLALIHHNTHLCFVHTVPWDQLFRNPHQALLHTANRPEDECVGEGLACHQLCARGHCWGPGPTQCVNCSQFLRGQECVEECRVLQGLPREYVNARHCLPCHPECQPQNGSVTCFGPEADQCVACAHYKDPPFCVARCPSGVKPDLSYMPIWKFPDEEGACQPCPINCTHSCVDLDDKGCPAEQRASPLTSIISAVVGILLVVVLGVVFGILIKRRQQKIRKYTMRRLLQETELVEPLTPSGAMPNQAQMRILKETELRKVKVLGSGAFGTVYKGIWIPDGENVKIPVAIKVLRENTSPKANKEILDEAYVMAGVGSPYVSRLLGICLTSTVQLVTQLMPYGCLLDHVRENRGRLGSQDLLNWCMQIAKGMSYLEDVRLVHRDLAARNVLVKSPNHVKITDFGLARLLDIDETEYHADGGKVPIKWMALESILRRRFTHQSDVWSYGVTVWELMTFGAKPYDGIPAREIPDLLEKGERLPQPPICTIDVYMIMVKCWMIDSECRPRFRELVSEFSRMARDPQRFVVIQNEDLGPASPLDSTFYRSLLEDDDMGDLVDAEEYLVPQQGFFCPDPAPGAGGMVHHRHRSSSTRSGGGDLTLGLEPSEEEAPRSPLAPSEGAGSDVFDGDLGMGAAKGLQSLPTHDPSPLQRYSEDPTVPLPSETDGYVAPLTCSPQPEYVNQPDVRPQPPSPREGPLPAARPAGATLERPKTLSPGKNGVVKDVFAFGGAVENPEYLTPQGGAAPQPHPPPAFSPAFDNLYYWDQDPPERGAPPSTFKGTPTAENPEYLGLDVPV

Question: What does the source list for `O=C(CSc1nc2ccccc2o1)NN=Cc1ccc[nH]1` (mixture of isomers) [Compound 6b, (E/Z)-N′-((1H-pyrrol-2-yl)methylene)-2-(benzo[d]oxazol-2-ylthio)acetohydrazide]?
Answer: IC50 (Human HER2): 224 ± 13 nM; IC50 (Human VEGFR-2): 565 ± 25 nM; Early Apoptosis (Lower Right %) (HepG2 cells): 1.64%; Late Apoptosis (Upper Right %) (HepG2 cells): 10.91%; Total (%) apoptotic cells (HepG2 cells): 16.84%; IC50 [1]: 2140 ± 100 nM; IC50 (Human CDK2): 886 ± 46 nM; Bax Expression (Bax; 24 h treatment, ELISA): 448.4 ± 15.4 pg/mL; expression ratio of Bax/Bcl-2 (Bax; control = 1): 20.53; Bax Fold (Bax; versus control HepG2 = 1): 5.34 fold; Caspase-9 Expression (Caspase-9; 24 h treatment, ELISA): 15.82 ± 0.51 pg/mL; Caspase-9 Fold (Caspase-9; versus control HepG2 = 1): 3.5 fold
